Measured values reported in patent US20230159532A1, “PARATHYROID HORMONE (PTH) RECEPTOR ANTAGONISTS AND USES THEREOF” (Crinetics Pharmaceuticals, Inc., priority 2021, published 2023).

Target: T1, human PTHR1 receptor (Homo sapiens, UniProt Q03431)
T1 construct: purchased Eurofins HTS030M
T1 sequence (Q03431 27-593): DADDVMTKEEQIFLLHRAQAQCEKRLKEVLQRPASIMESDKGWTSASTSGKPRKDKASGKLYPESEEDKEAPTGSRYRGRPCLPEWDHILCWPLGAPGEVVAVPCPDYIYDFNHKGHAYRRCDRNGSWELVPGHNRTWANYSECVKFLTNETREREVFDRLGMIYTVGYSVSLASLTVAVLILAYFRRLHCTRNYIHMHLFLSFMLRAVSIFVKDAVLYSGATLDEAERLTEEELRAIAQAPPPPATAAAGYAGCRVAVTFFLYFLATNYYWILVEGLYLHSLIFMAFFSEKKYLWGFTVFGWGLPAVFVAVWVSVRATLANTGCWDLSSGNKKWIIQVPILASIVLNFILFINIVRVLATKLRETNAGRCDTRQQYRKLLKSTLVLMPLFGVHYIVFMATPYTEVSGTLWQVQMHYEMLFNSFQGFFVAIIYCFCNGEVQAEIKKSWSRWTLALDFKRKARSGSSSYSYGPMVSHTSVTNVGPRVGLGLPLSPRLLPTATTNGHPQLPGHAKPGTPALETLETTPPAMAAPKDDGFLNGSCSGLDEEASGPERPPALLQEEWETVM
Test: Competitive antagonist binding assay for hPTH-R1 (radioactive competition binding, SPA beads)
Details: human PTHR1 membranes, [125I]-[Nle8,18,Tyr34]-PTH(1-34) 0.2 nM, 90 minutes at room temperature; read-out: hPTHR1 Ki
Procedure, shortened: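 Displacement of 0.2 nM radioiodinated [Nle8,18,Tyr34]-PTH(1-34) from membrane-bound human PTHR1 measured by scintillation proximity after 90 min at room temperature. Compounds typically 0-10,000 nM final, pH 7.4 HEPES/Mg/Ca buffer with BSA and detergent. Ki calculated from competition data.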

SMILES | Ki
CCN1C(=O)N(c2c(F)cc(NCCNC[C@@H](O)CO)cc2F)c2cc(C#N)ccc2-c2cc(Cl)cnc21 [1-183, 4-chloro-10-{4-[(2-{[(2R)-2,3-dihydroxypropyl]amino}ethyl)amino]-2,6-difluorophenyl}-8-ethyl-9-oxo-6,8,10-triazatricyclo[9.4.0.0^2,7]pentadeca-1(11),2(7),3,5,12,14-hexaene-13-carbonitrile] | < 100 nM
CCN1C(=O)N(c2c(F)cc(NCCNCCN)cc2F)c2cc(C#N)ccc2-c2cc(Cl)cnc21 [1-131, 10-[4-({2-[(2-aminoethyl)amino]ethyl}amino)-2,6-difluorophenyl]-4-chloro-8-ethyl-9-oxo-6,8,10-triazatricyclo[9.4.0.0^2,7]pentadeca-1(11),2(7),3,5,12,14-hexaene-13-carbonitrile] | < 100 nM
CN1C(=O)N(c2c(F)cc(NCCNCCO)cc2F)c2cc(C#N)cc(F)c2-c2cc(F)cnc21 [1-110, 10-[2,6-difluoro-4-({2-[(2-hydroxyethyl)amino]ethyl}amino)phenyl]-4,15-difluoro-8-methyl-9-oxo-6,8,10-triazatricyclo[9.4.0.0^2,7]pentadeca-1(11),2(7),3,5,12,14-hexaene-13-carbonitrile] | < 100 nM
CC(C)N1C(=O)N(c2c(F)cc(NCCNCCCC(=O)O)cc2F)c2cc(C#N)ccc2-c2cc(F)cnc21 [1-86, 4-{[2-({4-[13-cyano-4-fluoro-9-oxo-8-(propan-2-yl)-6,8,10-triazatricyclo[9.4.0.0^2,7]pentadeca-1(11),2(7),3,5,12,14-hexaen-10-yl]-3,5-difluorophenyl}amino)ethyl]amino}butanoic acid] | < 100 nM
CCN1C(=O)N(c2ccc(NCCNC)cc2)c2cc(OC)ccc2-c2cc(Cl)cnc21 [2-6, 4-chloro-8-ethyl-13-methoxy-10-(4-{[2-(methylamino)ethyl]amino}phenyl)-6,8,10-triazatricyclo[9.4.0.0^2,7]pentadeca-1(11),2(7),3,5,12,14-hexaen-9-one] | < 100 nM
CCN1C(=O)N(c2c(F)cc(NCC(=O)O)cc2F)c2cc(Cl)ccc2-c2cc(Cl)cnc21 [1-41, 2-[(4-{4,13-dichloro-8-ethyl-9-oxo-6,8,10-triazatricyclo[9.4.0.0^2,7]pentadeca-1(11),2(7),3,5,12,14-hexaen-10-yl}-3,5-difluorophenyl)amino]acetic acid] | > 10000 nM
CCN1C(=O)N(c2c(F)cc(NCCNC)cc2F)c2cc(Cl)ccc2-c2cc(C3CC3)cnc21 [1-24, 13-chloro-4-cyclopropyl-10-(2,6-difluoro-4-{[2-(methylamino)ethyl]amino}phenyl)-8-ethyl-6,8,10-triazatricyclo[9.4.0.0^2,7]pentadeca-1(11),2(7),3,5,12,14-hexaen-9-one] | < 100 nM
CNCCNc1cc(F)c(N2C(=O)N(C)c3ncc(F)cc3-c3c(C)cc(C#N)cc32)c(F)c1 [1-111, 10-(2,6-difluoro-4-{[2-(methylamino)ethyl]amino}phenyl)-4-fluoro-8,15-dimethyl-9-oxo-6,8,10-triazatricyclo[9.4.0.0^2,7]pentadeca-1(11),2(7),3,5,12,14-hexaene-13-carbonitrile] | < 100 nM
CNCCNc1cc(F)c(N2C(=O)N(C(C)C)c3ncc(F)cc3-c3ccc(Cl)cc32)c(F)c1 [1-105, 13-chloro-10-(2,6-difluoro-4-{[2-(methylamino)ethyl]amino}phenyl)-4-fluoro-8-(propan-2-yl)-6,8,10-triazatricyclo[9.4.0.0^2,7]pentadeca-1(11),2(7),3,5,12,14-hexaen-9-one] | < 100 nM
CC(C)N1C(=O)N(c2c(F)cc(NCCNCCCC(=O)O)cc2F)c2cc(C#N)ccc2-c2cc(Cl)cnc21 [1-93, 4-{[2-({4-[4-chloro-13-cyano-9-oxo-8-(propan-2-yl)-6,8,10-triazatricyclo[9.4.0.0^2,7]pentadeca-1(11),2(7),3,5,12,14-hexaen-10-yl]-3,5-difluorophenyl}amino)ethyl]amino}butanoic acid] | < 100 nM
CCN1C(=O)N(c2c(F)cc(NCCNCCO)cc2F)c2cc(C)ccc2-c2cc(F)cnc21 [1-226, 10-[2,6-difluoro-4-({2-[(2-hydroxyethyl)amino]ethyl}amino)phenyl]-8-ethyl-4-fluoro-13-methyl-6,8,10-triazatricyclo[9.4.0.0^2,7]pentadeca-1(11),2(7),3,5,12,14-hexaen-9-one] | < 100 nM
CCN1C(=O)N(c2c(F)cc(NCCNCCO)cc2F)c2cc(C#N)cc(C)c2-c2cc(F)cnc21 [1-63, 10-[2,6-difluoro-4-({2-[(2-hydroxyethyl)amino]ethyl}amino)phenyl]-8-ethyl-4-fluoro-15-methyl-9-oxo-6,8,10-triazatricyclo[9.4.0.0^2,7]pentadeca-1(11),2(7),3,5,12,14-hexaene-13-carbonitrile] | < 100 nM
CCN1C(=O)N(c2c(F)cc(NCCNCCO)cc2F)c2cc(Cl)cc(F)c2-c2cc(F)cnc21 [1-95, 13-chloro-10-[2,6-difluoro-4-({2-[(2-hydroxyethyl)amino]ethyl}amino)phenyl]-8-ethyl-4,15-difluoro-6,8,10-triazatricyclo[9.4.0.0^2,7]pentadeca-1(11),2(7),3,5,12,14-hexaen-9-one] | < 100 nM
CCN1C(=O)N(c2c(F)cc(NCCNC[C@H](C)O)cc2F)c2cc(C#N)ccc2-c2cc(Cl)cnc21 [1-180, 4-chloro-10-{2,6-difluoro-4-[(2-{[(2S)-2-hydroxypropyl]amino}ethyl)amino]phenyl}-8-ethyl-9-oxo-6,8,10-triazatricyclo[9.4.0.0^2,7]pentadeca-1(11),2(7),3,5,12,14-hexaene-13-carbonitrile] | < 100 nM
CNCCNc1cc(F)c(N2C(=O)N(CC3CC3)c3ncc(Cl)cc3-c3ccc(Cl)cc32)c(F)c1 [1-46, 4,13-dichloro-8-(cyclopropylmethyl)-10-(2,6-difluoro-4-{[2-(methylamino)ethyl]amino}phenyl)-6,8,10-triazatricyclo[9.4.0.0^2,7]pentadeca-1(11),2(7),3,5,12,14-hexaen-9-one] | < 100 nM
CCN1C(=O)N(c2c(F)cc(NCCN[C@H]3C[C@@H](O)C3)cc2F)c2cc(C#N)ccc2-c2cc(F)cnc21 [1-232, 10-{2,6-difluoro-4-[(2-{[(1s,3s)-3-hydroxycyclobutyl]amino}ethyl)amino]phenyl}-8-ethyl-4-fluoro-9-oxo-6,8,10-triazatricyclo[9.4.0.0^2,7]pentadeca-1(11),2(7),3,5,12,14-hexaene-13-carbonitrile] | < 100 nM
CCN1C(=O)N(c2c(F)cc(N[C@@H](C)CNC)cc2F)c2cc(C#N)ccc2-c2cc(Cl)cnc21 [1-165, 4-chloro-10-(2,6-difluoro-4-{[(2S)-1-(methylamino)propan-2-yl]amino}phenyl)-8-ethyl-9-oxo-6,8,10-triazatricyclo[9.4.0.0^2,7]pentadeca-1(11),2(7),3,5,12,14-hexaene-13-carbonitrile] | < 100 nM
CCN1C(=O)N(c2c(F)cc(NCCN[C@H](C)CO)cc2F)c2cc(C#N)ccc2-c2cc(Cl)cnc21 [1-173, 4-chloro-10-{2,6-difluoro-4-[(2-{[(2R)-1-hydroxypropan-2-yl]amino}ethyl)amino]phenyl}-8-ethyl-9-oxo-6,8,10-triazatricyclo[9.4.0.0^2,7]pentadeca-1(11),2(7),3,5,12,14-hexaene-13-carbonitrile] | < 100 nM
CCN1C(=O)N(c2c(F)cc(NCCNC)cc2F)c2cccc(C)c2-c2cc(Cl)cnc21 [1-21, 4-chloro-10-(2,6-difluoro-4-{[2-(methylamino)ethyl]amino}phenyl)-8-ethyl-15-methyl-6,8,10-triazatricyclo[9.4.0.0^2,7]pentadeca-1(11),2(7),3,5,12,14-hexaen-9-one] | < 100 nM
CCN1C(=O)N(c2c(F)cc(NCCNC[C@H](C)O)cc2F)c2cc(C#N)ccc2-c2cc(F)cnc21 [1-199, 10-{2,6-difluoro-4-[(2-{[(2S)-2-hydroxypropyl]amino}ethyl)amino]phenyl}-8-ethyl-4-fluoro-9-oxo-6,8,10-triazatricyclo[9.4.0.0^2,7]pentadeca-1(11),2(7),3,5,12,14-hexaene-13-carbonitrile] | < 100 nM
CCN1C(=O)N(c2c(F)cc(NCCNC(CO)CO)cc2F)c2cc(C#N)ccc2-c2cc(Cl)cnc21 [1-157, 4-chloro-10-[4-({2-[(1,3-dihydroxypropan-2-yl)amino]ethyl}amino)-2,6-difluorophenyl]-8-ethyl-9-oxo-6,8,10-triazatricyclo[9.4.0.0^2,7]pentadeca-1(11),2(7),3,5,12,14-hexaene-13-carbonitrile] | < 100 nM
CCN1C(=O)N(c2c(F)cc(NCCNCCO)cc2F)c2cc(C#N)c(OC)cc2-c2cc(F)cnc21 [3-23, 10-[2,6-difluoro-4-({2-[(2-hydroxyethyl)amino]ethyl}amino)phenyl]-8-ethyl-4-fluoro-14-methoxy-9-oxo-6,8,10-triazatricyclo[9.4.0.0^2,7]pentadeca-1(11),2(7),3,5,12,14-hexaene-13-carbonitrile] | < 100 nM
